Assays:
[1] = biological target: GDP-bound KRAS protein (aa 1-169), containing both G12C and C118A amino acid substitutions (Homo sapiens (Human), UniProt P01116, C118A/G12C); assay: Coupled Nucleotide Exchange Assay; type: biochemical; settings: 5 min compound pre-incubation; inhibition of SOS-mediated nucleotide exchange; AlphaScreen
Description: For compounds in Table 2, the following assay conditions were employed: Coupled Nucleotide Exchange Assay: Purified GDP-bound KRAS protein (aa 1-169), containing both G12C and C118A amino acid substitutions and an N-terminal His-tag, was pre-incubated with a compound dose-response titration for 5 min in assay buffer (25 mM HEPES pH 7.4, 10 mM MgCl2, and 0.01% Triton X-100). Following compound pre-incubation, purified SOS protein (aa 564-1049) and GTP (Roche 10106399001) were added to the assay wells and incubated for an additional 30 min. To determine the extent of inhibition of SOS-mediated nucleotide exchange, purified GST-tagged cRAF (aa 1-149), nickel chelate AlphaLISA acceptor beads (PerkinElmer AL108R), and AlphaScreen glutathione donor beads (PerkinElmer 6765302) were added to the assay wells and incubated for 5 minutes. The assay plates were then read on a PerkinElmer EnVision Multilabel Reader, using AlphaScreen® technology, and data were analyzed using a 4-parameter logistic model to calculate IC50 values.

[2] = system: Phosphorylation of ERK1/2 in MIA PaCa-2 cells; assay: Phospho-ERK1/2 MSD Assay; type: cell-based; settings: Homo sapiens, 2 hours compound treatment, 10 ng/mL EGF for 10 min, read-out: p-ERK IC50 (MIA PaCa-2)
Description: Phospho-ERK1/2 MSD Assay: MIA PaCa-2 (ATCC® CRL-1420™) and A549 (ATCC® CCL-185™) cells were cultured in RPMI 1640 Medium (ThermoFisher Scientific 11875093) containing 10% fetal bovine serum (ThermoFisher Scientific 16000044) and 1× penicillin-streptomycin-glutamine (ThermoFisher Scientific 10378016). Sixteen hours prior to compound treatment, MIA PaCa-2 or A549 cells were seeded in 96-well cell culture plates at a density of 25,000 cells/well and incubated at 37° C., 5% CO2. A compound dose-response titration was diluted in growth media, added to appropriate wells of a cell culture plate, and then incubated at 37° C., 5% CO2 for 2 hours. Following compound treatment, cells were stimulated with 10 ng/mL EGF (Roche 11376454001) for 10 min, washed with ice-cold Dulbecco's phosphate-buffered saline, no Ca^2+ or Mg^2+ (ThermoFisher Scientific 14190144), and then lysed in RIPA buffer (50 mM Tris-HCl pH 7.5, 1% Igepal, 0.5% sodium deoxycholate, 150 mM NaCl, and 0.5% sodium dodecyl sulfate) containing protease inhibitors (Roche 4693132001) and phosphatase inhibitors (Roche 4906837001). Phosphorylation of ERK1/2 in compound-treated lysates was assayed using Phospho-ERK1/2 Whole Cell Lysate kits (Meso Scale Discovery K151DWD) according to the manufacturer's protocol. Assay plates were read on a Meso Scale Discovery Sector Imager 6000, and data were analyzed using a 4-parameter logistic model to calculate IC50 values.

Chain of GDP-bound KRAS protein (aa 1-169), containing both G12C and C118A amino acid substitutions (P01116 other isoform, or with tags, fused parts or gaps G12C/C118A): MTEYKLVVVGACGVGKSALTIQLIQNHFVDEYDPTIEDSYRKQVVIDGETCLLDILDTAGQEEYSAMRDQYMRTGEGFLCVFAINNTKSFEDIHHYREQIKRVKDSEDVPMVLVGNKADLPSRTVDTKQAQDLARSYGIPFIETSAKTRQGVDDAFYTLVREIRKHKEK

Compound	IC50 [1] [nM]	IC50 [2] [nM]
C=CC(=O)N1C[C@H](C)N(c2nc(=O)n(-c3c(C)ccnc3C(C)C)c3nc(-c4c(N)cccc4F)c(F)cc23)C[C@H]1C [Example 6, 4-((2S,5R,M)-4-Acryloyl-2,5-dimethylpiperazin-1-yl)-7-(2-amino-6-fluorophenyl)-6-fluoro-1-(2-isopropyl-4-methylpyridin-3-yl)pyrido[2,3-d]pyrimidin-2(1H)-one]	38	26
C=CC(=O)N1C[C@H](C)N(c2nc(=O)n(-c3c(C)ccnc3C(C)C)c3nc(-c4c(O)cccc4F)c(F)cc23)C[C@H]1C [Example 5, 4-((2S,5R,M)-4-Acryloyl-2,5-dimethylpiperazin-1-yl)-6-fluoro-7-(2-fluoro-6-hydroxyphenyl)-1-(2-isopropyl-4-methylpyridin-3-yl)pyrido[2,3-d]pyrimidin-2(1H)-one]	79	46
C=CC(=O)N1C[C@H](C)N(c2nc(=O)n(-c3c(C)ccnc3C(C)C)c3nc(-c4ccccc4F)c(Cl)cc23)C[C@H]1C [Example 1, 4-((2S,5R,M)-4-Acryloyl-2,5-dimethylpiperazin-1-yl)-6-chloro-7-(2-fluorophenyl)-1-(2-isopropyl-4-methylpyridin-3-yl)pyrido[2,3-d]pyrimidin-2(1H)-one]	40	26
C=CC(=O)N1[C@H](C)CN(c2nc(=O)n(-c3c(C(C)C)ncnc3C(C)C)c3nc(-c4c(O)cccc4F)c(F)cc23)C[C@@H]1C [Example 23, 4-(4-Acryloyl-cis-3,5-dimethylpiperazin-1-yl)-1-(4,6-diisopropylpyrimidin-5-yl)-6-fluoro-7-(2-fluoro-6-hydroxyphenyl)pyrido[2,3-d]pyrimidin-2(1H)-one]	173	132
C=CC(=O)N1[C@H](C)CN(c2nc(=O)n(-c3c(C)ccnc3C(C)C)c3nc(-c4c(O)cccc4F)c(F)cc23)C[C@@H]1C (atropisomer, axis not shown; (M)) [Example 17, (M)-4-(4-Acryloyl-cis-3,5-dimethylpiperazin-1-yl)-6-fluoro-7-(2-fluoro-6-hydroxyphenyl)-1-(2-isopropyl-4-methylpyridin-3-yl)pyrido[2,3-d]pyrimidin-2(1H)-one]	117	105
